Experimental data taken from ChEMBL document CHEMBL1145354, “Benzopyran sulfonamides as KV1.5 potassium channel blockers” (Bioorg Med Chem Lett, 2007).

How the values were obtained:
hERG (KCNH2) = hERG (KCNH2) (Homo sapiens, UniProt Q12809); test: Inhibition of human ERG expressed in human embryonic kidney cells at 10 uM; assay type: cell-based; settings: human embryonic kidney cells expressing human ERG
[1] = molecular target: Potassium voltage-gated channel subfamily A member 5 (Homo sapiens, UniProt P22460); test: Inhibition of human Kv1.5 channel expressed in mouse L929 cells; assay type: cell-based
Potassium voltage-gated channel subfamily A member 5, sequence (P22460 whole entry): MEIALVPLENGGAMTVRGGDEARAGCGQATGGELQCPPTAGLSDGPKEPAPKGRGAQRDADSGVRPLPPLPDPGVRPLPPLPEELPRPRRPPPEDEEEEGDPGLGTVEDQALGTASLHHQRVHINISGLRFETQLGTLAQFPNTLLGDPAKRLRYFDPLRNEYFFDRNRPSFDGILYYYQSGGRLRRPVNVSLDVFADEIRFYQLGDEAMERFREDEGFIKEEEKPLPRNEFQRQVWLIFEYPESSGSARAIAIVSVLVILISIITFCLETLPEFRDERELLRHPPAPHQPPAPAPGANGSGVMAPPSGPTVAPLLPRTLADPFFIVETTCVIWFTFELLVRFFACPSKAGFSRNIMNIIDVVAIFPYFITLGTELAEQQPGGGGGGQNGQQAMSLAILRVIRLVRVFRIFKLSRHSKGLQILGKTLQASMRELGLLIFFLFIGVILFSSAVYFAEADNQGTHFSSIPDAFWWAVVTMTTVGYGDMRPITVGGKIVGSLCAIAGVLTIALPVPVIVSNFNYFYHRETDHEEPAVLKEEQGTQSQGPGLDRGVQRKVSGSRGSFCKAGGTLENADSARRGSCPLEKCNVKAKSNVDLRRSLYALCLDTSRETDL

hERG (KCNH2), sequence (Q12809 whole entry): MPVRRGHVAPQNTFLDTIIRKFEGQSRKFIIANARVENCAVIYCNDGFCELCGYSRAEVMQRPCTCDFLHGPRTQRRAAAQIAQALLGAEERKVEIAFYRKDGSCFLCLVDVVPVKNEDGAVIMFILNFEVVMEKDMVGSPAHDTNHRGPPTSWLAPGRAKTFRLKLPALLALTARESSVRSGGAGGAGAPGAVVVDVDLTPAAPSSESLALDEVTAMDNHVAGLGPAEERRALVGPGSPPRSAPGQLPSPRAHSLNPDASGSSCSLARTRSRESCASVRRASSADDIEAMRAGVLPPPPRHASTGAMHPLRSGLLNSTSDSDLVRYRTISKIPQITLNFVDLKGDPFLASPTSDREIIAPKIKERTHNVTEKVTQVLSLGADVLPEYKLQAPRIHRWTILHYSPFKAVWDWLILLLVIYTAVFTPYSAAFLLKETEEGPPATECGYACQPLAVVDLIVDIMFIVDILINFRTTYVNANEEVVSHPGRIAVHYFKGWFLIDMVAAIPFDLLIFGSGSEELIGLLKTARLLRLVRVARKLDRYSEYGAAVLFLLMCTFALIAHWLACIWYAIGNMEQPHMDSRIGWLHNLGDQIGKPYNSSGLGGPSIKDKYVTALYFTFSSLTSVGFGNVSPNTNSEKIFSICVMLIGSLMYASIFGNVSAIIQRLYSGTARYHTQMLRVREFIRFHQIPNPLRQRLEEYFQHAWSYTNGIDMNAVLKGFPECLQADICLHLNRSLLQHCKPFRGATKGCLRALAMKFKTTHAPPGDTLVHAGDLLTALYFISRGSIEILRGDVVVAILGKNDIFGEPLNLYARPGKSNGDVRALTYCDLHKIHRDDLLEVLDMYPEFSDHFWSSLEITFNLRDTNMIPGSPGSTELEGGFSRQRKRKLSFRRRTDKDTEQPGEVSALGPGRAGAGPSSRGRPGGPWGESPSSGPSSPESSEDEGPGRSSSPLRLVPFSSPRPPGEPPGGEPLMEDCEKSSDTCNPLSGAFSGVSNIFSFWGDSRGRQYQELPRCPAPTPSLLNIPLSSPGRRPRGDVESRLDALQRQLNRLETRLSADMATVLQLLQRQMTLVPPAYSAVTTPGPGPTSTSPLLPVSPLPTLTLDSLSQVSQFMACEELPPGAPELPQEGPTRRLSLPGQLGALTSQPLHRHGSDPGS

IC50 [1]	SMILES	inhibition at 10 µM (hERG (KCNH2))
170 nM	CCc1ccc(S(=O)(=O)N[C@@H]2c3cc(C(=O)N(CC)Cc4ccccc4F)ccc3OC(C)(C)[C@H]2O)cc1	7%
260 nM	CCc1ccc(S(=O)(=O)N[C@@H]2c3cc(C(=O)NCCc4ccccc4)ccc3OC(C)(C)[C@H]2O)cc1	–
77 nM	CCc1ccc(S(=O)(=O)N[C@@H]2c3cc(C(=O)N(CC)CCNc4ccccc4)ccc3OC(C)(C)[C@H]2O)cc1	39%
> 1000 nM	CCc1ccc(S(=O)(=O)N[C@@H]2c3cc(C(=O)NCCc4ccccn4)ccc3OC(C)(C)[C@H]2O)cc1	–
150 nM	CC1(C)Oc2ccc(C(=O)NCCc3ccccc3)cc2[C@@H](NS(=O)(=O)c2ccccc2OC(F)(F)F)[C@@H]1O	–
> 1000 nM	CCc1ccc(S(=O)(=O)N[C@H]2c3cc(C(=O)NCCc4ccccc4)ccc3OC(C)(C)[C@@H]2O)cc1	–
89 nM	CCc1ccc(S(=O)(=O)N[C@H]2c3cc(C(=O)N4CCC[C@@H]4CNc4c(C)cccc4C)ccc3OC(C)(C)[C@@H]2O)cc1	–
> 10000 nM	CCc1ccc(S(=O)(=O)N[C@@H]2c3cc(C(=N)NCCc4ccccc4)ccc3OC(C)(C)[C@H]2O)cc1	–
> 1000 nM	COc1ccc(S(=O)(=O)N[C@@H]2c3cc(C(=O)NCCc4ccccc4)ccc3OC(C)(C)[C@H]2O)cc1	–
57 nM	CCCCN([C@@H]1c2cc(C(=O)NCCc3ccccc3)ccc2OC(C)(C)[C@H]1O)S(=O)(=O)c1ccc(CC)cc1	35%
280 nM	CCc1ccc(S(=O)(=O)N(Cc2cnc[nH]2)[C@@H]2c3cc(C(=O)NCCc4ccccc4)ccc3OC(C)(C)[C@H]2O)cc1	–
120 nM	CCc1ccc(S(=O)(=O)N(CC(C)(C)C)[C@@H]2c3cc(C(=O)NCCc4ccccc4)ccc3OC(C)(C)[C@H]2O)cc1	–
290 nM	CCc1ccc(S(=O)(=O)N[C@@H]2c3cc(NC(=O)c4cccc(OC)c4)ccc3OC(C)(C)[C@H]2O)cc1	40%
240 nM	CCc1ccc(S(=O)(=O)N[C@@H]2c3cc(CNCCc4ccccc4)ccc3OC(C)(C)[C@H]2O)cc1	–
280 nM	CCc1ccc(S(=O)(=O)N[C@@H]2c3cc(C(=O)N(C)c4ccccc4)ccc3OC(C)(C)[C@H]2O)cc1	–
79 nM	CCc1ccc(S(=O)(=O)N[C@@H]2c3cc(C(=O)n4nc(-c5ccccc5)cc4N)ccc3OC(C)(C)[C@H]2O)cc1	47%
320 nM	CCc1ccc(S(=O)(=O)N(CC(C)C)[C@@H]2c3cc(C(=O)NCCc4ccccc4)ccc3OC(C)(C)[C@H]2O)cc1	–
200 nM	CCc1ccc(S(=O)(=O)N[C@H]2c3cc(C(=O)N(CC)[C@H]4CCN(Cc5ccccc5)C4)ccc3OC(C)(C)[C@@H]2O)cc1	80%

Second part, the molecule before the results:

SMILES	IC50 [1]	inhibition at 10 µM (hERG (KCNH2))
CC1(C)Oc2ccc(C(=O)NCCc3ccccc3)cc2[C@@H](NS(=O)(=O)c2ccccc2)[C@@H]1O	> 1000 nM	–
Cc1ccc(S(=O)(=O)N[C@@H]2c3cc(C(=O)NCCc4ccccc4)ccc3OC(C)(C)[C@H]2O)cc1	400 nM	–
Cc1cccc(S(=O)(=O)N[C@@H]2c3cc(C(=O)NCCc4ccccc4)ccc3OC(C)(C)[C@H]2O)c1	340 nM	–
CCc1ccc(S(=O)(=O)N[C@H]2CC(C)(C)Oc3ccc(C(=O)N4CCC[C@H]4CNc4c(C)cccc4C)cc32)cc1	110 nM	51%
CCc1ccc(S(=O)(=O)N[C@@H]2c3cc(C(=O)N(CC)[C@@H]4CCN(Cc5ccccc5)C4)ccc3OC(C)(C)[C@H]2O)cc1	210 nM	–
CCc1ccc(S(=O)(=O)N(Cc2ccccn2)[C@@H]2c3cc(C(=O)NCCc4ccccc4)ccc3OC(C)(C)[C@H]2O)cc1	120 nM	–
CCc1ccc(S(=O)(=O)N[C@@H]2c3cc(C(=O)N4CCC[C@@H]4CNc4c(C)cccc4C)ccc3OC(C)(C)[C@H]2O)cc1	130 nM	–
CC1(C)Oc2ccc(C(=O)NCCc3ccccc3)cc2[C@@H](NS(=O)(=O)c2ccc(F)cc2)[C@@H]1O	> 1000 nM	–
CCc1ccc(S(=O)(=O)N(Cc2cccnc2)[C@@H]2c3cc(C(=O)NCCc4ccccc4)ccc3OC(C)(C)[C@H]2O)cc1	130 nM	61%
CCc1ccc(S(=O)(=O)N[C@@H]2c3cc(C(=O)Nc4cccc(OC)c4)ccc3OC(C)(C)[C@H]2O)cc1	> 10000 nM	–
CCc1ccc(S(=O)(=O)N[C@@H]2c3cc(C(=O)Nc4ccccc4)ccc3OC(C)(C)[C@H]2O)cc1	260 nM	–
CCc1ccc(S(=O)(=O)N[C@@H]2c3cc(NC(=O)c4cccc(OC)c4)ccc3C[C@H]2O)cc1	–	21%
CCc1ccc(S(=O)(=O)N[C@@H]2c3cc(C(=O)N4CCC[C@H]4CNc4c(C)cccc4C)ccc3OC(C)(C)[C@H]2O)cc1	120 nM	9%
CCc1ccc(S(=O)(=O)N[C@@H]2c3cc(C(=O)N(CC)[C@H]4CCN(Cc5ccccc5)C4)ccc3OC(C)(C)[C@H]2O)cc1	170 nM	–
CCc1ccc(S(=O)(=O)N[C@H]2c3cc(C(=O)N4CCC[C@H]4CNc4c(C)cccc4C)ccc3OC(C)(C)[C@@H]2O)cc1	260 nM	–
CCc1ccc(S(=O)(=O)N[C@H]2c3cc(C(=O)N(CC)[C@@H]4CCN(Cc5ccccc5)C4)ccc3OC(C)(C)[C@@H]2O)cc1	220 nM	–
CCc1ccc(S(=O)(=O)N[C@@H]2c3cc(C(=O)NCCc4c[nH]cn4)ccc3OC(C)(C)[C@H]2O)cc1	> 10000 nM	–
CC1(C)Oc2ccc(C(=O)NCCc3ccccc3)cc2[C@@H](NS(=O)(=O)c2ccc(C(F)(F)F)cc2)[C@@H]1O	200 nM	–
CCc1ccc(S(=O)(=O)N[C@@H]2c3cc(S(=O)(=O)NCCc4ccccc4)ccc3OC(C)(C)[C@H]2O)cc1	510 nM	–
CC1(C)Oc2ccc(C(=O)NCCc3ccccc3)cc2[C@@H](NS(=O)(=O)c2ccc([N+](=O)[O-])cc2)[C@@H]1O	> 1000 nM	–
